Experimental data taken from patent US7879880B2, “Substituted aniline derivatives useful as histamine H3 antagonists” (Schering Corporation, priority 2005, dated 2011).

What was measured:
[1] = target: T1, guinea pig brain H3 receptor (Cavia porcellus, UniProt Q9JI35); test: H3-receptor binding assay, guinea pig brain membranes; conditions: [3H]R-α-methyl histamine or [3H]Nα-methyl histamine
T1 construct: The brain tissue was homogenized with a solution of 50 mM Tris, pH 7.5; from tissue; host or cells: guinea pig brain membranes
Method: (§1) The source of the H3 receptors in this experiment was guinea pig brain. Alternatively, the source of H3 receptors was recombinant human receptor, expressed in HEK-293 (human embryonic kidney) cells.
The animals weighed 400-600 g. The brain tissue was homogenized with a solution of 50 mM Tris, pH 7.5. The final concentration of tissue in the homogenization buffer was 10% w/v. The homogenates were centrifuged at 1,000×g for 10 min. in order to remove clumps of tissue and debris. The resulting supernatants were then centrifuged at 50,000×g for 20 min. in order to sediment the membranes, which were next washed three times in homogenization buffer (50,000×g for 20 min. each). The membranes were frozen and stored at −70° C. until needed.
All compounds to be tested were dissolved in DMSO and then diluted into the binding buffer (50 mM Tris, pH 7.5) such that the final concentration was 2 μg/ml with 0.1% DMSO. Membranes were then added (400 μg of protein, 5 μg in the case of recombinant human receptor) to the reaction tubes. The reaction was started by the addition of 3 nM [^3H]R-α-methyl histamine (8.8 Ci/mmol) or 3 nM [^3H]N^α-methyl histamine (80 Ci/mmol) and continued under incubation at 30° C. for 30 min. Bound ligand was separated from unbound ligand by filtration, and the amount of radioactive ligand bound to the membranes was quantitated by liquid scintillation spectrometry. […]

[2] = target: T2, recombinant human H3 receptor (Homo sapiens, UniProt Q9Y5N1); test: H3-receptor binding assay, recombinant human receptor expressed in HEK-293 cells; conditions: [3H]R-α-methyl histamine or [3H]Nα-methyl histamine
T2 construct: expressed in transfected cells; host or cells: HEK-293 (human embryonic kidney) cells
Method: as §1
All compounds to be tested were dissolved in DMSO and then diluted into the binding buffer (50 mM Tris, pH 7.5) such that the final concentration was 2 μg/ml with 0.1% DMSO. Membranes were then added (400 μg of protein, 5 μg in the case of recombinant human receptor) to the reaction tubes. The reaction was started by the addition of 3 nM [^3H]R-α-methyl histamine (8.8 Ci/mmol) or 3 nM [^3H]N^α-methyl histamine (80 Ci/mmol) and continued under incubation at 30° C. for 30 min. Bound ligand was separated from unbound ligand by filtration, and the amount of radioactive ligand bound to the membranes was quantitated by liquid scintillation spectrometry. All incubations were performed in duplicate and the standard error was always less than 10%. Compounds that inhibited more than 70% of the specific binding of radioactive ligand to the receptor were serially diluted to determine a Ki (nM).

[3] = Effects on diet-induced obesity in mice (weight gain and food intake); type: in vivo; conditions: mice on high-fat diet, 10 mg/kg by gavage once daily for four days, vs vehicle control
Method: Lean mice (male, approx. 5 weeks of age, purchased from The Jackson Laboratory, Bar Harbor, Me.) were maintained in individual cages at 22° C. on a 12:12 hr light/dark cycle. The “treated” mice (N=12) were administered a Thiazole Derivative (10 mg/kg) by gavage once daily for four consecutive days. Control mice (N=12) were administered vehicle only, once daily for four days. Both control and treated mice were fed a high-fat diet from days 0 to 4 and body weight and food intake were monitored daily. The percent inhibition for weight gain and food intake was calculated by comparing the increase in weight gain and food intake in the treated mice to the increase in weight gain and food intake in the control mice.
Compound numbers correspond to the compound numbering set forth in the specification.

T2 sequence (Q9Y5N1 whole entry): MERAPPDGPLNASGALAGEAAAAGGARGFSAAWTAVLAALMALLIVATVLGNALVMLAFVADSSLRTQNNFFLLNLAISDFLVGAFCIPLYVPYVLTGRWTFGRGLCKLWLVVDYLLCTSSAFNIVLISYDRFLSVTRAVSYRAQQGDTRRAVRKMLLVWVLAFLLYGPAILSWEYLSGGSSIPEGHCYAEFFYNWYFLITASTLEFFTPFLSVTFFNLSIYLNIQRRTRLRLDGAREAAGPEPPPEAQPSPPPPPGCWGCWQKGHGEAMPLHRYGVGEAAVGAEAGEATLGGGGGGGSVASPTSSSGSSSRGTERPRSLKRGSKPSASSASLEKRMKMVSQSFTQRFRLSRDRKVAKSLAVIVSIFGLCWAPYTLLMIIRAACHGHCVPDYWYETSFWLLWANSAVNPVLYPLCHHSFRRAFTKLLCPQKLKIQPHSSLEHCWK
T1 sequence (Q9JI35 whole entry): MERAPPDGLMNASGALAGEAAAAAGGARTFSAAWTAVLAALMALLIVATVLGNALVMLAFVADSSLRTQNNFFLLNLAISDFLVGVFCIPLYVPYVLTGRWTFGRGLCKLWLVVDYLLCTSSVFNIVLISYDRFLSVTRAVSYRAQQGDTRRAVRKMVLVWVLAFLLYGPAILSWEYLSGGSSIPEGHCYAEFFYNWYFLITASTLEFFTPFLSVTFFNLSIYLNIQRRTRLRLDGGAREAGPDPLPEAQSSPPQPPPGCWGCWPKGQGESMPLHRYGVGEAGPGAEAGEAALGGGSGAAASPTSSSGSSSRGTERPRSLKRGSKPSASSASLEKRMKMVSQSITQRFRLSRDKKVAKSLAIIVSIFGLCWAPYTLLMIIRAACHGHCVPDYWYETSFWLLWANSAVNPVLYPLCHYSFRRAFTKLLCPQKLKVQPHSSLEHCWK

SMILES | Ki [1] [nM] | Ki [2] [nM] | Food intake Inhibition (%) [3] [%] | Weight Gain Inhibition (%) [3] [%]
Cc1cccc(C)c1NC(=O)N1CCN(C(=O)c2ccc(Nc3ccncc3)cc2)CC1 [Compound 54A] | 2 | – | – | –
O=C(c1ccc(Nc2ccncc2)cc1)N1CCC(n2c(-c3ccccn3)nc3cccnc32)CC1 [Compound 59A] | – | 3 | 1.1 | 21.0
Nc1cc(Nc2ccc(C(=O)N3CCC(n4c(-c5ccccn5)nc5cccnc54)CC3)cc2)ccn1 [Compound 160A] | – | – | 18.3 | 33.0
